Experimental findings from a melting point compilation (Tetko et al.; mined from patent text by program, amines drawn as free bases though some values may be those of a salt) are described below.

Where only a bound is given, the exact number is not on record here.

Broadly, the melting point is the temperature of the solid-liquid transition. In turn, `CSc1c(C)[nH]c2ccc([N+](=O)[O-])cc12` displayed a melting point of 198 °C. As for `CC1OC(n2cc(F)c(NC(=O)c3ccccc3)nc2=O)C(OC(=O)c2ccccc2)C1OC(=O)c1ccccc1` (centres undefined), the melting point was in the range of 158 to 160 °C. As for `O=C(O)c1cccc(-c2cc(-c3ccc(C(F)(F)F)cc3)on2)c1`, the figure is 276 to 277 °C; as for `CCCC1=C(C(=O)OCC)C(c2ccncc2)c2c[nH]nc2N1` (centres undefined), 266 °C. For the molecule `CCOC(=O)C(Cc1ccc(C)c(OC(F)(F)C(F)F)c1)C(=O)c1ccc(F)cc1` (centres undefined), the melting point fell in the range of 52 to 53 °C. As for `N#Cc1ccc(C(O)(Cc2ccccc2)Cc2ccccc2)cc1`, the figure is 153 °C; as for `CCCCCCCCCCCCc1nnn(CC(=O)Nc2ccc(F)cc2F)n1`, 103 to 106 °C; as for `COc1ccc(CCN(C)C(C)(C)CO)cc1`, 40 °C. As for `CCCCCCCCCCCCS(=O)(=O)Nc1cc(-c2nc3cc(Cl)c(Cl)cc3[nH]2)ccc1OC`, the figure is 203 to 204 °C. `COc1ccc(C2=NN(C(=O)c3cccc(NC(=O)c4ccc(NC(=O)c5ccc([N+](=O)[O-])cc5)cc4)c3)CCC2)cc1OCCN(C)C`: the melting point came out at 274 °C. As for `O=c1cc(CBr)n(Cc2ccccc2)cc1OCCC12CC3CC(CC(C3)C1)C2`, the figure is 200 to 203 °C; as for `O=C(NC(Cc1ccc(C(F)(F)F)cc1)C(=O)c1ccc(F)cc1)c1cc(=O)cco1` (centres undefined), 115 to 116 °C; as for `O=C(Nc1ccccc1)N1C[C@@H](P(c2ccccc2)c2ccccc2)[C@H](P(c2ccccc2)c2ccccc2)C1`, 165 to 167 °C. Next, `CCCCNC(=O)N(C)c1cccc(-c2ccc(C=C(OC)C(=O)O)cc2OCCCC)c1`: 106 °C; `CCCCC1C=C(N)c2ncccc2N1CC(C)(C)O` (centres undefined): 177 to 179 °C; `O=S(=O)(NC1CCCCC1)c1ccc(Nc2nccc(Cl)n2)cc1`: 202 to 204 °C. As for `COc1cc(C(=O)c2ccc(C(F)(F)F)cc2)ccc1O`, the figure is 97 °C; as for `COc1cc2[nH]c(=O)[nH]c(=O)c2cc1Cl`, 356 to 358 °C. The molecule `CCn1c(=O)ccn(-c2ccc([N+](=O)[O-])cc2)c1=O` returned a melting point of 182 °C.

`O=C(O)c1cc2[nH]c3c(O)cccc3c(=O)n2n1` came in with a melting point of 326 to 330 °C.

For `CC(C)n1nc(-c2sc(Nc3ccccn3)nc2-c2ccccc2)ccc1=O`, the melting point fell in the range of 194 to 195 °C. Next, `CN1Cc2c(NC(=O)OCc3ccccc3)ncn2-c2ccccc2C1=O`: 246 to 247 °C; `Cc1nc2c(O)cccn2c1C=O`: 251 to 252 °C. As for `C#CCOC(=O)Oc1ccc(Cc2ccc(OC(=O)OCC#C)cc2)cc1`, the figure is 60 °C; as for `Nc1nc(CCCc2ccccc2)nc2nc(-c3ccco3)nn12`, 164 to 167 °C.

In turn, `CCOC(=O)c1cc2c(OC)cccc2[nH]1` gave a melting point of 168 to 170 °C. Next, `O=S(=O)(CCCl)CCCS(=O)(=O)CCCl`: 142 to 146 °C. Next, `CNC(=O)/C(=N/OC)c1ccccc1COc1ccc(C(F)(F)F)c(NC)n1`: 66 to 67 °C; `Cc1ccc(Cl)cc1N1CCCN(C2CCC2)C1=S`: 152 to 154 °C. Next, `CC(C)(N)CNc1ncc2ncnc(Nc3ccc(F)c(Cl)c3)c2n1`: 205 to 207 °C. `CCCn1nnn(-c2cc(OCC(=O)O)c(Cl)cc2Cl)c1=O` returned a melting point of 134 to 136 °C. As for `COc1ccc(/C=C(\C#N)c2ccccc2[N+](=O)[O-])cc1OC1CCCC1`, the figure is 95.5 to 97 °C; as for `COC(=O)c1cc(/C=N/O)ccc1[N+](=O)[O-]`, 116 °C. `CSC(=S)Nc1ccc2c(c1)OCO2` showed a melting point of 114 to 115 °C. Molecule `COc1cc(OC)c(C23CC4CC(CC(C4)C2)C3)cc1C(=O)Oc1ccc(C(=O)O)cc1` yielded a melting point of 236 to 238 °C. Next, `C=CCc1cc2c(cc1OCC=Cc1ccccc1)CCC(=O)N2CC=Cc1ccccc1`: 88 to 89 °C; `CCOc1nc2cccc(CC)c2c(=O)o1`: 89 to 91 °C. `CNC(=NC#N)NCCCCCc1csc(NC(=N)N)n1` returned a melting point of 109 to 113 °C. Next, `Oc1ccc(-c2cnc3cnc(-c4cccc(O)c4)nc3c2)cc1`: greater than 268 °C; `CCCCOC(=O)c1ccccc1-c1ccc(Cn2c(CCCC)nc(C(C)(C)O)c2C(=O)O)cc1`: 158 to 159 °C; `c1ccc(-c2ccc3[nH]c4c(ccc5cc[nH]c54)c3c2)cc1`: greater than 250 °C. Molecule `CC(C)OC(=O)C1CCCN1S(=O)(=O)c1ccc(N2CCC(=O)CC2)cc1` (centres undefined) yielded a melting point of 97 to 101 °C. Next, `Cc1c(-c2ccccc2)nn(N)c1OCCN1CCCC1`: 109 °C; `CCS(=O)CC(=O)c1ccc(-c2ccccc2F)cc1` (centres undefined): 91 to 93 °C; `COC(=O)C1Cc2c([nH]c3ccccc23)C(C)N1Cc1ccccc1` (centres undefined): 143 to 144 °C. Molecule `C=CCC(C(O)=Nc1cc(Cl)cc(Cl)c1)C(C)C(=O)O` (centres undefined) returned a melting point of 131 °C. As for `COC(=O)Oc1cc(N2C(=O)C3=C(CCCC3)C2=O)c(F)cc1Cl`, the melting point was 138 to 146 °C. Next, `CCN1CCN(c2cccc3ccc(-c4cccc(NS(C)(=O)=O)c4)cc23)CC1`: 100 to 101 °C. Next, `Oc1cnc(-c2ccccc2)c(F)c1`: 150 to 151 °C; `CCc1nc(-c2ncn3c4ccc(Cl)cc4c(=O)n(C)c23)no1`: 196 to 198 °C; `CC1(c2ccccc2)SC(=S)N(Nc2ccccc2)C1=NO` (centres undefined): 83 to 84 °C. For `O=C(CCNc1c(C(=O)O)[nH]c2cc(Cl)cc(Cl)c12)c1cccc(F)c1`, the melting point lay within 270 to 280 °C. Next, `O=C(NCCSCc1cccc(Cl)c1)c1c(Br)cccc1Br`: 55 to 57 °C. Next, `CCCCCCCCn1c(=O)c2c(N3CCN(C)CC3)cc(Cl)cc2n(Cc2ccccc2)c1=O`: 78 to 80 °C; `CC(C(N)=NO)N(CCN(C(C)C(N)=NO)C(C)C(N)=NO)C(C)C(N)=NO` (centres undefined): 191 to 192 °C; `O=C1Nc2ccc(C3CC4CCC3C4)cc2C12OCCO2` (centres undefined): 159 to 161 °C. As for `CCOC(=O)C1C(=O)N(c2ccccc2)c2cc3ccoc3cc21` (centres undefined), the figure is 108 to 110 °C; as for `CCc1cc(NC(=O)c2ccc(OC)c(OC)c2)ccc1C(C)(C)CNC(C)=O`, 203 to 206 °C; as for `Nc1ccc(S(=O)(=O)c2cc(-c3cccc(C(F)(F)F)c3)nc(N3CCCC3)c2)cc1`, 219 to 220 °C. `COc1ccc(-c2oncc2CCC(=O)O)cc1OC` showed a melting point of 169 to 170 °C. Next, `C#CCOc1cc(F)cc(F)c1-n1c(=O)cc(C(F)(F)F)n(C)c1=O`: 159 to 162 °C; `COC(=O)c1c(Cl)cc(Cl)cc1NC(=O)CSc1ccccc1OC`: 93 to 94 °C.

With `O=C(NC1CC1)[C@@H]1CN(C(=O)OCc2ccccc2)C[C@H]1O`, the melting point lay within 132 to 133 °C. The molecule `Nc1cnc(-c2cccc(Cl)c2Cl)c(N)n1` registered a melting point of 169 to 170 °C. Molecule `CS(=O)(=O)c1ccc(-c2cnn(CC(F)(F)F)c(=O)c2Nc2ccc(F)cc2F)cc1` yielded a melting point of 170 to 175 °C. As for `CCCCc1cnc(C(N)=O)cc1N`, the figure is 103 to 105 °C; as for `COCc1cccc(C(=O)c2nc(OC)cc(OC)n2)c1[N+](=O)[O-]`, 111 to 113 °C. As for `O=c1[nH]c2ccccc2c2c1CNCC2`, the figure is 292 to 295 °C; as for `Cn1c(=O)c2nc(C(=O)O)cn2c2ccccc21`, 267 to 268 °C.

The molecule `COc1ccc(N2CCN(c3c(C)c(C)c4c(c3C)C(CO)C(C)(C)O4)CC2)cc1` (centres undefined) registered a melting point of 140 to 141 °C. As for `CCOCc1nc2cnc3cc(OCc4ccccc4)ccc3c2n1CC1COC(C)(C)O1` (centres undefined), the melting point was 110 to 111 °C.

Regarding `N#Cc1ccc2c(c1-c1c(C#N)ccc3c1OCO3)OCO2`, the melting point lay within 213 to 215 °C. `CC(C)C(=O)Nc1nc(Cl)c([N+](=O)[O-])c(Cl)n1` yielded a melting point of 166 to 169 °C. Next, `N#Cc1cc2c(cc1C(F)(F)F)[nH]c(=O)c(=O)n2OC(=O)c1ccccc1`: 186 °C; `CC(NCC(O)CP(=O)(O)CC1CCCCC1)c1ccc(Cl)c(Cl)c1` (centres undefined): 173 to 178 °C. As for `Cc1ccc(-c2ccc(Cl)c(C(=O)NCC34CC5CC(CC(C5)C3)C4)c2)c(C(=O)O)c1`, the figure is 214 to 216 °C. Turning to `O=C(Nn1c(=O)c(=O)[nH]c2ccc3ccccc3c21)c1ccccc1`, the melting point was greater than 300 °C. `CCN1CCc2cc(Nc3ncc(Cl)c(Nc4ccccc4C(=O)NC)n3)c(OC)c(N)c2CC1` registered a melting point of 117 to 160 °C. As to `C=CCCC(C#N)(C#N)Cc1ccc(OC(C)=O)cc1`, the melting point was 80.2 °C.

As for `S=C(N1CCC(c2ccccc2)(c2ccccc2)CC1)n1ccnc1`, the melting point lay in the range of 161 to 165 °C. Next, `Cc1nn(C2(F)C=CC([N+](=O)[O-])=CC2)c(=O)n1C(F)F` (centres undefined): 82 to 83 °C; `Nc1ncnc2c1c(-c1ccc(Oc3ccccc3)cc1)cn2C1CCC2(CC1)OCCO2`: 193 to 194 °C. Next, `O=C(OCC1CO1)c1c(Br)c(Br)c(C(=O)OCC2CO2)c(Br)c1Br` (centres undefined): 161 °C; `COc1ccc2nccc(NC(=O)N3CCN(CC(O)c4ccc5c(c4)NC(=O)CO5)CC3)c2n1` (centres undefined): 231 to 233 °C. As for `NC(=O)NNC(c1ccccc1)c1ccccc1`, the figure is 182 to 184 °C; as for `O=[N+]([O-])c1ccc(C(O)C(CO)N2CCC(Cc3ccccc3)CC2)cc1` (centres undefined), 122 to 124 °C. `O=c1oc(-c2cccc(OC(F)(F)F)c2)cc(O)c1SCc1ccccc1` registered a melting point of 128 to 132 °C. As for `COC(=O)c1ccc(OCCOc2ccccc2)cc1`, the figure is 92 to 93 °C. The molecule `O=C(C=Cc1cc(O)c(O)c([N+](=O)[O-])c1)c1ccc([N+](=O)[O-])cc1` came in with a melting point of 255 to 256 °C.
